Data on two compounds can be found in patent US20150087969A1, “SYSTEMS AND METHODS FOR OPTICALLY GUIDED PLACEMENT AND MONITORING OF MEDICAL IMPLANTS” (Children's National Medical Center, priority 2013, published 2015).

Series [1] can be described thus: Thermal degradation by thermogravimetric analysis (TGA). The settings on record: TGA in nitrogen gas at 20° C./min (n=3). The class given is physicochemical. The protocol:
According to an embodiment, aromatic polyether-based medical grade thermoplastic polyurethane (TPU) pellets can be mixed with and without IRDye 800CW to form TPU Composite and Plain TPU using a hydraulic platen press. […] The temperature at which the samples begin to decrease sharply in weight is determined to be their degradation point. According to an embodiment, thermal degradation temperatures are evaluated using a Q50 Thermogravimetric Analyzer (TGA), wherein the analysis is conducted in nitrogen gas at 20° C./min (n=3), where n is the number of times the experiment has been performed.
Furthermore, the degradation temperatures are considerably higher than the processing temperature of TPU (195° C.).

Series [2] concerns Human Umbilical Vein Endothelial (HUVEC) cells. Put plainly: Biocompatibility (toxicity) in direct contact with endothelial cells, alamar blue and Calcein AM/propidium iodide. Type of series: cell-based. The protocol:
According to another embodiment of disclosure, biocompatibility studies are conducted to determine the toxicity of TPU Composite in direct contact with endothelial cells as well as the adhesion of endothelial cells to the TPU Composite. Pressed films (Plain TPU and TPU Composite) are sterilized by washing in 1×PBS for 24 hours under constant agitation, followed by a 30 minute soak in 100% ethanol and two 1 hour rinses with PBS. Biocompatibility studies include 12 well cell bind plates being seeded with Human Umbilical Vein Endothelial (HUVEC) cells (passage 4-10, cultured in complete endothelial growth medium EGM Bulletkit, LONZA) at a density of 100 cells/cm^2 for 12 hours to allow for adhesion [37° C., 5% CO2]. Films (19 mm) are placed in direct contact to the cells and incubated for an additional 72 hours, replacing media daily. Toxicity is quantitatively analyzed with alamar blue according to manufacturer's protocol. Briefly, 100 μL of alamar blue is added to the media and allowed to incubate for 1.5 hours. Fluorescence of each alamar blue was read at excitation 545 nm, emission 590 nm. Films are removed from wells and cells are stained with Calcein AM and propidium iodide according to manufacturer's protocol, fixed with 4% paraformaldehyde for 1 hour and rinsed three times with PBS for qualitative analysis of cell death. Cells are imaged with fluorescent confocal imaging (Zeiss) for proliferation, morphology changes and viability. The process is repeated with 0.025 wt % IRDye 800CW in media, cells with media as a positive control, and cells with 70% ethanol in media as a negative control.

A short description of series [3]: Stability of IRDye 800CW fluorescent signal in PBS at 37° C. The note with it: PBS at 37° C. with gentle agitation, 12 days. Type of series: physicochemical. The protocol: According to another embodiment of the disclosure, in order to determine the long-term effect of being implanted in vivo, catheters are leached in phosphate buffered saline powder (PBS) for 23 days to determine the amount of dye retained within the matrix. TPU Composite tubes are cut into thin slices, weighed, and added to a black 96 well plate containing 200 μl PBS. Leaching of IRDye 800CW from the TPU Composite (n=8) is analyzed under physiological conditions (pH ˜7.4, 37° C., with gentle agitation) in a water bath. The water bath is covered to prevent photo-bleaching. Each day, tubes can be transferred to the successive well containing PBS, and the previous day is analyzed using a micro-plate reader with excitation at 765 nm, emission at 794 nm and a sensitivity of 100. […] Further, to determine the amount of IRDye 800CW retained, a calibration curve containing serial dilutions of IRDye 800CW in PBS is used (0 to 0.00030 wt %) (R^2=0.99). Additionally, 10 mL of IRDye 800CW in PBS is placed in the water bath and 100 μL aliquots are analyzed per day for signs of signal degradation due to heat.
The retention analysis of IR Dye 800 CW within TPU matrix of FIG. 17 includes a 6.35% of the IR Dye 800 CW being released from the polymer over 23 days. […]

Series [4] relates to Human Umbilical Vein Endothelial (HUVEC) cells. Put plainly: Endothelial cell adhesion to films. Type of series: cell-based. The settings on record: HUVECs seeded on films, one hour, Calcein AM/propidium iodide. The protocol: To determine if endothelial cells bind to the catheters, 19 mm films are cut and affixed to the bottom of suspension 12-well culture plates with 50 μL of 10 mg/mL collagen Type I isolated from rat tails. Plates are incubated for 30 minutes to allow for collagen polymerization. Films are seeded with 100 cells/cm^2 and incubated for one hour. Wells are washed with PBS to remove non-adherent cells and stained with Calcein AM and propidium iodide to aid in visualization of cell binding. The number and cell health of adherent cells is analyzed with fluorescence microscopy and compared to positive (collagen plates) and negative (Teflon) controls.
In order to be a viable biomaterial, cell adhesion should be minimal in order to avoid excess damage when removing or inserting the PICC.

Regarding `CC1(C)C(=CC=C2CCCC(C=CC3=[N+](CCCCCC(=O)[O-])c4ccc(S(=O)(=O)[O-])cc4C3(C)C)=C2Oc2ccc(S(=O)(=O)[O-])cc2)N(CCCCS(=O)(=O)[O-])c2ccc(S(=O)(=O)[O-])cc21.[Na+].[Na+].[Na+].[Na+]` [IRDye 800CW], the thermal degradation temperature in series [1] amounted to 308±10 °C. Besides, the “Normalized Viability” value in series [2] (0.025 wt % in media, HUVECs, 72 hours, alamar blue, normalized to media control) is recorded as 91.27 ± 8.54. Besides, the “cell viability (statistics)” value in series [2] (72 hour incubation of HUVECs, IRDye 800CW at 0.025 wt %) is “no statistical difference”. In addition, in series [2] (Calcein AM and Propidium Iodide staining, HUVECs), the “cell morphology or proliferation rates” value is reported as “no apparent change”. The “fluorescent signal stability in PBS” value in series [3] is given as “no observed decrease in the fluorescent signal”.
With “Collagen I: collagen Type I isolated from rat tails, positive control for cell adhesion”, in series [4], the “cell adherence (qualitative, cell shape)” value is on record as “preferentially adhered”.
